Laboratory results as given in patent US8357694B2, “Substituted 5,6-dihydro-6-phenylbenzo[F]isoquinolin-2-amine compounds” (ArQule, Inc., priority 2008, dated 2013).
Counter-ions that a name gives are not always drawn.

Row | melting point | Structure (SMILES)
1 | 180 to 185 °C | CCCCNCCc1cc(Nc2ncc3c(n2)-c2ccccc2[C@H](c2ccccc2F)C3)ccc1F (as salt: hydrochloride) [Example 171, (R)—N-(3-(2-(butylamino)ethyl)-4-fluorophenyl)-6-(2-fluorophenyl)-5,6-dihydrobenzo[h]quinazolin-2-amine hydrochloride salt]
2 | 139 to 147 °C | COCCNCc1cccc(Nc2ncc3c(n2)-c2ccccc2[C@H](c2ccccc2F)C3)c1 (as salt: HCl) [Example 158, (R)-6-(2-fluorophenyl)-N-(3-((2-methoxyethylamino)methyl)phenyl)-5,6-dihydrobenzo[h]quinazolin-2-amine]
3 | 181 to 183 °C | Clc1ccc(C2Cc3cnc(Nc4ccc(CCN5CCCCC5)cc4)nc3-c3ccccc32)cc1Cl (centres unmarked)
4 | 166 to 167 °C | Clc1ccc([C@H]2Cc3cnc(Nc4ccc(CCN5CCOCC5)cc4)nc3-c3ccccc32)cc1Cl [Example 51, (R)-6-(3,4-dichlorophenyl)-N-(4-(2-morpholinoethyl)phenyl)-5,6-dihydrobenzo[h]quinazolin-2-amine]
5 | 99 to 100 °C | CS(=O)(=O)OCCc1cc(Nc2ncc3c(n2)-c2ccccc2[C@H](c2ccccc2F)C3)ccc1F [Example 170, (R)-2-fluoro-5-(6-(2-fluorophenyl)-5,6-dihydrobenzo[h]quinazolin-2-ylamino)phenethyl methanesulfonate]
6 | 104 to 110 °C | N#Cc1c(NCCCN2CCCC2)ncc2c1-c1ccccc1C(c1ccc(Cl)c(Cl)c1)C2 (centres unmarked) [Example 180, 6-(3,4-dichlorophenyl)-2-(3-(pyrrolidin-1-yl)propylamino)-5,6-dihydrobenzo[f]isoquinoline-1-carbonitrile]
7 | 173 to 178 °C | COCCN1CCN(Cc2cccc(Nc3ncc4c(n3)-c3ccccc3[C@H](c3ccccc3F)C4)c2)CC1 (as salt: hydrochloride) [Example 179, (R)-6-(2-fluorophenyl)-N-(3-((4-(2-methoxyethyl)piperazin-1-yl)methyl)phenyl)-5,6-dihydrobenzo[h]quinazolin-2-amine hydrochloride]
8 | 143 to 145 °C | COCCN1CCN(CCc2ccc(Nc3ncc4c(n3)-c3ccccc3[C@@H](c3ccccc3Cl)C4)cc2)CC1 (as salt: hydrochloride)
9 | 60 to 62 °C | Fc1ccc(C2Cc3cnc(NCCCN4CCCCC4)nc3-c3ccccc32)cc1 (centres unmarked) [Example 16, 6-(4-fluorophenyl)-N-(3-(piperidin-1-yl)propyl)-5,6-dihydrobenzo[h]quinazolin-2-amine]
10 | 170 to 175 °C | CCCCN(C)CCc1ccc(Nc2ncc3c(n2)-c2ccccc2[C@H](c2ccc(Br)cc2)C3)cc1 (as salt: hydrochloride) [Example 98, (S)-6-(4-bromophenyl)-N-(4-(2-(butyl(methyl)amino)ethyl)phenyl)-5,6-dihydrobenzo[h]quinazolin-2-amine hydrochloride salt]
11 | 163 to 165 °C | Fc1ccc([C@@H]2Cc3cnc(Nc4ccc(CCN5CCCCC5)cc4)nc3-c3ccccc32)cc1F (as salt: hydrochloride) [Example 84, (S)-6-(3,4-difluorophenyl)-N-(4-(2-(piperidin-1-yl)ethyl)phenyl)-5,6-dihydrobenzo[h]quinazolin-2-amine hydrochloride]
12 | 225 to 230 °C | Clc1ccc(C2Cc3cnc(Nc4ccc(CCN5CCCCC5)cc4)nc3-c3ccccc32)c(Cl)c1 (centres unmarked) (as salt: hydrochloride) [Example 76, 6-(2,4-dichlorophenyl)-N-(4-(2-(piperidin-1-yl)ethyl)phenyl)-5,6-dihydrobenzo[h]quinazolin-2-amine hydrochloride]
13 | 135 to 145 °C | CN(CCc1ccccc1)CCc1ccc(Nc2ncc3c(n2)-c2ccccc2[C@H](c2ccccc2F)C3)cc1 (as salt: hydrochloride) [Example 93, (R)-6-(2-fluorophenyl)-N-(4-(2-(methyl(phenethyl)amino)ethyl)phenyl)-5,6-dihydrobenzo[h]quinazolin-2-amine hydrochloride salt]
14 | 221 to 225 °C | COCCNCCc1ccc(Nc2ncc3c(n2)-c2ccccc2[C@H](c2ccc(F)c(F)c2)C3)cc1 (as salt: HCl) [Example 82, (S)-6-(3,4-difluorophenyl)-N-(4-(2-(2-methoxyethylamino)ethyl)phenyl)-5,6-dihydrobenzo[h]quinazolin-2-amine]
15 | 157 to 158 °C | CN1CCN(CCc2ccc(Nc3ncc4c(n3)-c3ccccc3C(c3ccccc3C(F)(F)F)C4)cc2)CC1 (centres unmarked) [Example 71, N-(4-(2-(4-methylpiperazin-1-yl)ethyl)phenyl)-6-(2-(trifluoromethyl)phenyl)-5,6 dihydrobenzo[h]quinazolin-2-amine]
16 | 234 to 235 °C | CC(C)(C)OC(=O)N1CCN(CCc2ccc(Nc3ncc4c(n3)-c3ccccc3C(c3ccccc3C(F)(F)F)C4)cc2)CC1 (centres unmarked) [Example 72, tert-butyl 4-(4-(6-(2-(trifluoromethyl)phenyl)-5,6-dihydrobenzo[h]quinazolin-2-ylamino)phenethyl)piperazine-1-carboxylate]

Row | melting point | Structure (SMILES)
17 | 131 to 132 °C | COCCNCCc1cc(Nc2ncc3c(n2)-c2ccccc2[C@H](c2ccccc2F)C3)ccc1F (as salt: hydrochloride) [Example 173, (R)—N-(4-fluoro-3-(2-(2-methoxyethylamino)ethyl)phenyl)-6-(2-fluorophenyl)-5,6-dihydrobenzo[h]quinazolin-2-amine hydrochloride salt]
18 | 85 to 87 °C | Brc1cccc(C2Cc3cnc(Nc4ccc(CCNCCN5CCOCC5)cc4)nc3-c3ccccc32)c1 (centres unmarked) [Example 45, 6-(3-bromophenyl)-N-(4-(2-(2-morpholinoethylamino)ethyl)phenyl)-5,6-dihydrobenzo[h]quinazolin-2-amine]
19 | 140 to 141 °C | OCCc1cc(Nc2ncc3c(n2)-c2ccccc2[C@H](c2ccccc2F)C3)ccc1F [Example 169, (R)-2-(2-fluoro-5-(6-(2-fluorophenyl)-5,6-dihydrobenzo[h]quinazolin-2-ylamino)phenyl)ethano]
20 | 85 to 87 °C | COCCNCCc1ccc(Nc2ncc3c(n2)-c2ccccc2[C@H](c2ccc(F)c(F)c2)C3)cc1 (as salt: hydrochloride) [Example 86, (S)-6-(3,4-difluorophenyl)-N-(4-(2-(2-methoxyethylamino)ethyl)phenyl)-5,6-dihydrobenzo[h]quinazolin-2-amine hydrochloride]
21 | 80 to 82 °C | CCCCN(C)CCc1ccc(Nc2ncc3c(n2)-c2ccccc2C(c2ccccc2C(F)(F)F)C3)cc1 (centres unmarked) [Example 68, N-(4-(2-(butyl(methyl)amino)ethyl)phenyl)-6-(2-(trifluoromethyl)phenyl)-5,6-dihydrobenzo[h]quinazolin-2-amine]
22 | 115 to 117 °C | NCCc1ccc(Nc2ncc3c(n2)-c2ccccc2C(c2cccc(Br)c2)C3)cc1 (centres unmarked) [Example 34, N-(4-(2-aminoethyl)phenyl)-6-(3-bromophenyl)-5,6-dihydrobenzo[h]quinazolin-2-amine]
23 | 267 to 270 °C | COCCN1CCN(CCc2ccc(Nc3ncc4c(n3)-c3ccccc3C(c3ccc(F)c(F)c3)C4)cc2)CC1 (centres unmarked) [Example 59, 6-(3,4-difluorophenyl)-N-(4-(2-(4-(2-methoxyethyl)piperazin-1-yl)ethyl)phenyl)-5,6-dihydrobenzo[h]quinazolin-2-amine]
24 | 139 to 140 °C | COCCN1CCN(CCc2ccc(Nc3ncc4c(n3)-c3ccccc3C(c3ccccc3C(F)(F)F)C4)cc2)CC1 (centres unmarked) [Example 69, N-(4-(2-(4-(2-methoxyethyl)piperazin-1-yl)ethyl)phenyl)-6-(2-(trifluoromethyl)phenyl)-5,6-dihydrobenzo[h]quinazolin-2-amine]
25 | 160 to 162 °C | CN(CCc1ccc(Nc2ncc3c(n2)-c2ccccc2[C@H](c2ccc(F)cc2)C3)cc1)C1CCCCC1 [Example 102, (S)—N-(4-(2-(cyclohexyl(methyl)amino)ethyl)phenyl)-6-(4-fluorophenyl)-5,6-dihydrobenzo[h]quinazolin-2-amine]
26 | 204 to 214 °C | COCCN1CCN(CCc2ccc(Nc3ncc4c(n3)-c3ccccc3C(c3ccc(Cl)cc3)C4)cc2)CC1 (centres unmarked) (as salt: hydrochloride) [Example 56, 6-(4-chlorophenyl)-N-(4-(2-(4-(2-methoxyethyl)piperazin-1-yl)ethyl)phenyl)-5,6-dihydrobenzo[h]quinazolin-2-amine hydrochloride]
27 | 189 to 193 °C | Nc1cc2c(cn1)CC(c1ccc(Cl)cc1Cl)c1ccccc1-2 (centres unmarked) [Example 156, 6-(2,4-dichlorophenyl)-5,6-dihydrobenzo[f]isoquinolin-2-amine]
28 | 75 to 77 °C | CN(CCc1ccc(Nc2ncc3c(n2)-c2ccccc2C(c2cccc(Br)c2)C3)cc1)CCc1ccccn1 (centres unmarked) [Example 36, 6-(3-bromophenyl)-N-(4-(2-(methyl(2-(pyridin-2-yl)ethyl)amino)ethyl)phenyl)-5,6-dihydrobenzo[h]quinazolin-2-amine]
29 | 248 to 250 °C | COCCN1CCN(CCc2ccc(Nc3ncc4c(n3)-c3ccccc3[C@H](c3ccc(Cl)c(Cl)c3)C4)cc2)CC1 (as salt: hydrochloride) [Example 115, (S)-6-(3,4-dichlorophenyl)-N-(4-(2-(4-(2-methoxyethyl)piperazin-1-yl)ethyl)phenyl)-5,6-dihydrobenzo[h]quinazolin-2-amine hydrochloride]
30 | 154 to 155 °C | Nc1ncc2c(n1)-c1ccccc1[C@H](c1ccccc1F)C2 (as salt: hydrochloride) [Example 24, (R)-6-(2-fluorophenyl)-5,6-dihydrobenzo[h]quinazolin-2-amine]
31 | 86 to 88 °C | Brc1cccc(C2Cc3cnc(Nc4ccc(CCN5CCOCC5)cc4)nc3-c3ccccc32)c1 (centres unmarked) [Example 31, 6-(3-bromophenyl)-N-(4-(2-morpholinoethyl)phenyl)-5,6-dihydrobenzo[h]quinazolin-2-amine]
32 | 158 to 163 °C | COCCNCc1cccc(Nc2ncc3c(n2)-c2ccccc2[C@H](c2ccccc2F)C3)c1 (as salt: hydrochloride) [Example 178, (R)-6-(2-fluorophenyl)-N-(3-((2-methoxyethylamino)methyl)phenyl)-5,6-dihydrobenzo[h]quinazolin-2-amine hydrochloride]
